In ChEMBL document CHEMBL1201862, “PubChem BioAssay data set” (2004):
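Five compound concentrations were applied to cells in 96-well plates for 48 hours; endpoints were derived by simple linear interpolation of the resulting dose-response curve. GI50 marks 50% less growth.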 Active and inactive are the calls of the source. Rule as the data show it: active = GI50 up to about 1.1 µM and inactive = higher.

Tests used:
Assay in all cases: inhibition of tumour cell growth, NCI panel, 48 h
RPMI-8226 = test system: RPMI-8226
LOX IMVI = test system: LOX IMVI
TK-10 = test system: TK-10
K562 = test system: K562
SF-295 = test system: SF-295
HT-29 = test system: HT-29
OVCAR-8 = test system: OVCAR-8
KM12 = test system: KM12
OVCAR-5 = test system: OVCAR-5
MOLT-4 = test system: MOLT-4
NCI-H226 = test system: NCI-H226
HL-60 = test system: HL-60
786-0 = test system: 786-0
SW-620 = test system: SW-620
SR = test system: SR
SK-MEL-5 = test system: SK-MEL-5
Hs-578T = test system: Hs-578T
SK-OV-3 = test system: SK-OV-3
SN12C = test system: SN12C
A549 = test system: A549

Compound | GI50 (RPMI-8226) | GI50 (LOX IMVI) | GI50 (TK-10) | GI50 (K562) | GI50 (SF-295) | GI50 (HT-29) | GI50 (OVCAR-8) | GI50 (KM12) | GI50 (OVCAR-5) | GI50 (MOLT-4) | GI50 (NCI-H226) | GI50 (HL-60) | GI50 (786-0) | GI50 (SW-620) | GI50 (SR) | GI50 (SK-MEL-5) | GI50 (Hs-578T) | GI50 (SK-OV-3) | GI50 (SN12C) | GI50 (A549)
Fc1ccc(/C(=N/Cc2ccccc2)N2CCOCC2)cc1 | > 100 µM (inactive) | > 100 µM (inactive) | > 100 µM (inactive) | > 100 µM (inactive) | > 100 µM (inactive) | > 100 µM (inactive) | > 100 µM (inactive) | > 100 µM (inactive) | > 100 µM (inactive) | > 100 µM (inactive) | > 100 µM (inactive) | > 100 µM (inactive) | > 100 µM (inactive) | > 100 µM (inactive) | > 100 µM (inactive) | > 100 µM (inactive) | > 100 µM (inactive) | > 100 µM (inactive) | > 100 µM (inactive) | 
C=CC[C@@]12CCC(=O)C=C1CCCC2=O | > 100 µM (inactive) | > 100 µM (inactive) | > 100 µM (inactive) | > 100 µM (inactive) | > 100 µM (inactive) | > 100 µM (inactive) |  |  | > 100 µM (inactive) | > 100 µM (inactive) | > 100 µM (inactive) | > 100 µM (inactive) | > 100 µM (inactive) | > 100 µM (inactive) | > 100 µM (inactive) | > 100 µM (inactive) | > 100 µM (inactive) | > 100 µM (inactive) | > 100 µM (inactive) | > 100 µM (inactive)
COc1ccccc1[C@@H]1CCC2CC[C@@H](c3ccccc3OC)[N+]21Cc1ccccc1 (stereo partly specified) | 0.211 µM (active) | 1.69 µM (inactive) | 5.74 µM (inactive) | 0.344 µM (active) | 2.33 µM (inactive) | 0.847 µM (active) | 1.27 µM (inactive) | 0.522 µM (active) | 2.88 µM (inactive) | 1.83 µM (inactive) | 1.39 µM (inactive) | 0.478 µM (active) | 1.94 µM (inactive) | 2.6 µM (inactive) | 1.03 µM (active) | 0.36 µM (active) | 4.49 µM (inactive) | 2.84 µM (inactive) | 2.54 µM (inactive) | 1.99 µM (inactive)
CC1=NN(c2ccc(C)cc2)C2(C1)SCC(=O)N2c1nc2ccccc2s1 (stereo unspecified) | 17.7 µM (inactive) | 19.6 µM (inactive) | 28 µM (inactive) | 24.2 µM (inactive) | 13 µM (inactive) | 30.5 µM (inactive) | 31.6 µM (inactive) | 27 µM (inactive) | 37.2 µM (inactive) | 9.66 µM (inactive) | 11.3 µM (inactive) | 13.1 µM (inactive) | 20.1 µM (inactive) | 24.3 µM (inactive) | 7.11 µM (inactive) | 11.4 µM (inactive) | 32.1 µM (inactive) | 22.1 µM (inactive) | 11.2 µM (inactive) | 31.5 µM (inactive)
Cc1nc(-c2cc3c(ccc4ccccc43)oc2=O)cs1 | > 100 µM (inactive) | > 100 µM (inactive) | 46.7 µM (inactive) | > 100 µM (inactive) | 41.8 µM (inactive) | > 100 µM (inactive) | 35.5 µM (inactive) | > 100 µM (inactive) | > 100 µM (inactive) | > 100 µM (inactive) | 66.4 µM (inactive) | > 100 µM (inactive) | 39.1 µM (inactive) | > 100 µM (inactive) | > 100 µM (inactive) | > 100 µM (inactive) | 30.3 µM (inactive) | 37.8 µM (inactive) | > 100 µM (inactive) | > 100 µM (inactive)
COCc1cc2c(cc1/C(=C/[N+](=O)[O-])CS(=O)(=O)c1ccccc1)OCO2 | > 100 µM (inactive) | > 100 µM (inactive) | > 100 µM (inactive) | > 100 µM (inactive) | > 100 µM (inactive) | > 100 µM (inactive) | > 100 µM (inactive) |  | > 100 µM (inactive) | > 100 µM (inactive) | > 100 µM (inactive) | > 100 µM (inactive) | > 100 µM (inactive) | > 100 µM (inactive) | > 100 µM (inactive) | > 100 µM (inactive) | > 100 µM (inactive) | > 100 µM (inactive) | > 100 µM (inactive) | > 100 µM (inactive)
COc1cc(=O)oc(/C=C/C=C/C=C/C(C)=C\C2(C)OC(C)C(C)(O)C2O)c1C (stereo unspecified) | > 100 µM (inactive) | > 100 µM (inactive) | > 100 µM (inactive) | > 100 µM (inactive) | > 100 µM (inactive) | > 100 µM (inactive) | > 100 µM (inactive) | 87.9 µM (inactive) | > 100 µM (inactive) | > 100 µM (inactive) | > 100 µM (inactive) | > 100 µM (inactive) | > 100 µM (inactive) | > 100 µM (inactive) | > 100 µM (inactive) | > 100 µM (inactive) | 0.923 µM (active) | > 100 µM (inactive) | > 100 µM (inactive) | > 100 µM (inactive)
COc1ccc(N[S+]([O-])CCc2ccccc2)cc1 (stereo unspecified) | > 100 µM (inactive) | > 100 µM (inactive) | > 100 µM (inactive) | 73.3 µM (inactive) | > 100 µM (inactive) | > 100 µM (inactive) | > 100 µM (inactive) | > 100 µM (inactive) | > 100 µM (inactive) | > 100 µM (inactive) | > 100 µM (inactive) | > 100 µM (inactive) | > 100 µM (inactive) | > 100 µM (inactive) | > 100 µM (inactive) | > 100 µM (inactive) | 23.4 µM (inactive) | 4.35 µM (inactive) | > 100 µM (inactive) | > 100 µM (inactive)
Cc1ncc([N+](=O)[O-])n1CCNC(=O)CCCn1cnc([N+](=O)[O-])n1 | > 100 µM (inactive) | > 100 µM (inactive) | > 45.8 µM (inactive) | > 100 µM (inactive) | > 100 µM (inactive) | > 100 µM (inactive) | > 95.9 µM (inactive) | > 100 µM (inactive) | > 100 µM (inactive) | > 100 µM (inactive) | > 100 µM (inactive) | > 100 µM (inactive) | > 100 µM (inactive) | > 71.8 µM (inactive) | > 100 µM (inactive) | > 72.4 µM (inactive) | > 100 µM (inactive) | > 100 µM (inactive) | > 41.8 µM (inactive) | > 78.3 µM (inactive)
Oc1cc2c3c(c1)c1cc4c(cc1c[n+]3CC2)OCO4 | 1.77 µM (inactive) | 1.63 µM (inactive) | 13 µM (inactive) | 1.57 µM (inactive) | 2.97 µM (inactive) | 4.6 µM (inactive) | 0.748 µM (active) | 1.82 µM (inactive) | 45.6 µM (inactive) | 0.242 µM (active) | 2.69 µM (inactive) | 3.97 µM (inactive) | 1.08 µM (active) | 2.86 µM (inactive) | 0.671 µM (active) | 4.97 µM (inactive) | 0.906 µM (active) | 16.1 µM (inactive) | 1.29 µM (inactive) | 5.71 µM (inactive)
